Laboratory results: patent publication US5051519A, “Novel antiviral and antitumor terpene hydroquinones and methods of use” (Harbor Branch Oceanographic Institution, Inc., priority 1990, dated 1991)
In brackets after ≈: the same amount, converted by molar mass.

Key:
[1] = tested on: influenza virus type A strain PR8; test: Antiviral assay: cytopathic effect (CPE) reduction, influenza virus type A strain PR8 in MDCK cells, neutral red dye uptake; assay type: cell-based, Influenza A strain A/PR/8/34 (HINI)
MDCK cells = test: Growth inhibition (cytotoxicity) of MDCK cells in the PR-8 antiviral assay, neutral red; assay type: cell-based, canine (Canis familiaris); conditions: Canis lupus familiaris, 50% growth inhibition
[2] = tested on: P388 murine leukemia cells; test: Antiproliferative effect against murine P388 leukemia cells, MTT; assay type: cell-based; conditions: Mus musculus, 48 hour exposure
Procedure: The crude ethanolic extract and pure compound was tested for toxicity against murine P388 leukemia cells. P388 cells obtained from J. Mayo, National Cancer Institute, Bethesda, Md., were maintained in Roswell Park Memorial Institute medium 1640 (RPMI-1640) supplemented with 10% horse serum. All cell lines were cultured in plastic tissue culture flasks and kept in an incubator at 37° C. in humidified air containing 5% CO2. Antibiotic-free stock cultures of P388 cells were subcultured to 10^5 cells/ml by dilution in fresh growth medium at 2-3 day intervals. The mean generation time of primary cultures was 14-17 hours.
To assess the antiproliferative effects of agents against P388 cells, 200 μl cultures (96-well tissue culture plates, Nunc, Denmark) were established at 1×10^6 cells/ml in drug-free medium or medium containing the crude extract at a final dilution of 1:500 of compound 1 or 2 at various concentrations. Solvent for all dilutions was methanol, which was removed from plates under vacuum. All experimental cultures were initiated in medium containing Gentamicin sulfate ([…]; Schering Corporation, Kenilworth, N.J.). After 48 hour exposures, P388 cells were enumerated using 3-[4,5-dimethylthiazol-2-yl]-2,5-diphenyltetrazolium bromide (MTT) as described below (Alley, M. C. et al. [1988] Cancer Res. 48:589).
To quantitate the effects on cell proliferation, 75 μl of warm growth medium containing 5 mg/ml MTT was added to each well and cultures were returned to the incubator for 90 minutes. To spectrophotometrically quantitate formation of reduced formazan, plates were centrifuged (900 xg, 5 minutes), culture fluids removed by aspiration, and 200 μl of acidified isopropanol (2 ml concentrated HCl/liter isopropanol) added per well. The absorbance of the resulting solutions were measured at 570 nm with a plate reader (MR700 Microplate Reader, Dynatech Laboratories, Chantilly, Va.). […] A linear relationship between P388 cell number and formazan production was found over the range of cell densities observed in these experiments.

[3] = molar restatement of μg per 200 μl value

SMILES | in vitro therapeutic index (TI) ([1]; dog, mdck) | IC50 (MDCK cells; [3]) [µM] | IC50 (MDCK cells; 72 h, read on day 3) [µg/mL] | IC50 [2] [µg/mL] | activity against influenza virus type A strain PR-8 (in words) [1] | in vitro therapeutic index (TI) ([1]; ratio of IC50/EC50)
COc1ccc(O)c2c1CC1(C)C(C)CCC3C(C)(C)CCCC31O2 (stereo not shown) [Compound 1] | 9 | 19 | 6.5 | 13 (≈ 37.7 µM) | – | –
C[C@H]1CC[C@H]2C(C)(C)CCC[C@]23Oc2ccc(O)cc2C[C@]13C [aureol, reference compound] | – | 11.6 | 3.65 | 9 (≈ 28.6 µM) | strong antiviral activity | 116
COc1ccc(OC(C)=O)c2c1CC1(C)C(C)CCC3C(C)(C)CCCC31O2 (stereo not shown) [Compound 2] | 100 | 15 | 5 | 23.8 (≈ 61.6 µM) | – | –
